Drawing on US20240287138A1, “CYCLIC PEPTIDES FOR INHIBITING TNF RECEPTOR 1 ACTIVITY” (Merck Sharp & Dohme LLC, priority 2023, published 2024), this text covers IC50 and Kd for eight compounds.

Numbered stars: 1 amine (or outer) side, 2 acyl side, 3 side chain; on linkers, the order of the positions; unused ones are H or OH. Bridge positions count the residues as written; N and C are the ends. Square brackets hold non-standard residues; d marks the D form. Peptide text beside a SMILES is read from it. * marks the point of attachment. Trp(βS-Me,7-OMe) = COc1cccc2c([C@H](C)[C@H](N)C(=O)O)c[nH]c12; cBu(1-CO,cis-3-CH2NH) = O=C([C@H]1C[C@@H](CN[*:1])C1)[*:2]; dPro(trans-4-NMe3+) = C[N+](C)(C)[C@@H]1CN[C@@H](C(=O)O)C1; X5 = COc1cccc2[nH]cc([C@H](C)[C@H](N[*:1])C(=O)[*:2])c12; Trp(1-CH2COOH) = N[C@@H](Cc1cn(CC(=O)O)c2ccccc12)C(=O)O; X24 = O=C(O)c1ccc([C@@H](O)[C@H](N[*:1])C(=O)[*:2])cc1; Morpholine(3S-CO,6,6-Me2) = CC1(C)CN[C@H](C(=O)O)CO1; Phe(4-SO2NH2) = N[C@@H](Cc1ccc(S(N)(=O)=O)cc1)C(=O)O; Trp(7-CN) = N#Cc1cccc2c(C[C@H](N)C(=O)O)c[nH]c12; Trp(7-Cl) = N[C@@H](Cc1c[nH]c2c(Cl)cccc12)C(=O)O; Phe(4-CONH2) = NC(=O)c1ccc(C[C@H](N)C(=O)O)cc1; Phe(4-COOH) = N[C@@H](Cc1ccc(C(=O)O)cc1)C(=O)O; Trp(7-aza) = N[C@@H](Cc1c[nH]c2ncccc12)C(=O)O; dPro(cis-4-NH2) = N[C@H]1CN[C@@H](C(=O)O)C1; Pip(5R-OH) = O=C(O)[C@@H]1CC[C@@H](O)CN1; αMeW = C[C@](N)(Cc1c[nH]c2ccccc12)C(=O)O; X1 = O=C([C@@H]1CC[C@H](N[*:1])C1)[*:2]; Pip(4-aza) = O=C(O)[C@@H]1CNCCN1; hPhe = N[C@@H](CCc1ccccc1)C(=O)O; 4Pal = N[C@@H](Cc1ccncc1)C(=O)O; NMeE = CN[C@@H](CCC(=O)O)C(=O)O; dHyp = O=C(O)[C@H]1C[C@H](O)CN1; Dap(Me) = CNC[C@H](N)C(=O)O; NMeS = CN[C@@H](CO)C(=O)O; αMeS = C[C@](N)(CO)C(=O)O; Carboxymethyl = O=C(O)C*; NMeA = CN[C@@H](C)C(=O)O; Nle = CCCC[C@H](N)C(=O)O; Sar = CNCC(=O)O Where only a bound is given, the exact number is not on record here.

The target in experiment [1] is T1, human soluble TNFR1 (sTNFR1) (Homo sapiens, UniProt P19438).
T1 construct: made in house; host or cells: Sf21 (baculovirus)
T1 sequence (P19438 with tags, fused parts or gaps): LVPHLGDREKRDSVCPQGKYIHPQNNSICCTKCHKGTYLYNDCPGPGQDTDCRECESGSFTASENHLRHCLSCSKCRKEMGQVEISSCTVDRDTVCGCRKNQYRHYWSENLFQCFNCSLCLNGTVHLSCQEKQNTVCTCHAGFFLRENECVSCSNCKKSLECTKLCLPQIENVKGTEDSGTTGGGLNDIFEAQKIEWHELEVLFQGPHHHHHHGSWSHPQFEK
Description: Human sTNFR1-peptide displacement assay (LanthaScreen Eu TR-FRET binding assay). The gist of the method:
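Readout is the 665/615 nm TR-FRET ratio (Eu anti-His donor, streptavidin-Alexa647 acceptor), normalized to DMSO and saturating displacer, fit by Morrison-based five-parameter logistic for Kd^app. His-tagged sTNFR1 (1-211) prebound to 100 nM biotinylated peptide SEQ ID NO.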

The target of the next experiment is T2, human TNFR2 ECD protein (Homo sapiens, UniProt P20333).
T2 construct: HRV 3C protease cleavage site (C); 6His (C, cleaved yes); made in house; host or cells: Sf21 insect cells (baculovirus), secreted
T2 sequence (P20333 23-257): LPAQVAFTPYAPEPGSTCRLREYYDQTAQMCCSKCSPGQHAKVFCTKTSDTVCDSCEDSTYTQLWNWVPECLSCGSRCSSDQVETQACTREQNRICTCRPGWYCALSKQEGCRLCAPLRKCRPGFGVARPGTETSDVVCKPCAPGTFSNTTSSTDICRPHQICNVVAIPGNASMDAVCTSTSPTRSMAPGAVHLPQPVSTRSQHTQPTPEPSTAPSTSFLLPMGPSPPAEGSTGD
Description: SPR off-target binding (selectivity) to human TNFR2 ECD. The method, boiled down:
(§1)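 Biotinylated avi-tagged human TNFR1 or TNFR2 ECD, expressed in Sf21 insect cells, captured on streptavidin SPR chip; peptide analytes run in 10 mM HEPES pH 7.4, 150 mM NaCl, 3 mM EDTA, 0.05% P20, 2% DMSO. kon and koff measured, affinity KA calculated.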

The target in experiment [2] is T3, human TNFR1 extracellular domain (ECD) protein (Homo sapiens, UniProt P19438).
T3 construct: HRV 3C protease cleavage site (C); 6His (C, cleaved yes); made in house; host or cells: Sf21 insect cells (baculovirus), secreted
T3 sequence (P19438 30-211): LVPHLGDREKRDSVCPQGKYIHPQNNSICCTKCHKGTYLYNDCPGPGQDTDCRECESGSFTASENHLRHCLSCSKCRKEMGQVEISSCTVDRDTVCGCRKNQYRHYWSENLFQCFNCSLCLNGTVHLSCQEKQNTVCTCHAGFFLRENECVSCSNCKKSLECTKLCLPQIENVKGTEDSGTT
Description: SPR binding affinity to captured human TNFR1 ECD. The gist of the method: as §1

`C[C@H]1C(=O)N[C@@H](CC(N)=O)C(=O)N[C@@H](Cc2ccncc2)C(=O)N[C@@H](Cc2c[nH]c3ccccc23)C(=O)N[C@@](C)(CO)C(=O)N[C@@H](Cc2ccc(C(=O)O)cc2)C(=O)N[C@@H](CCCNC(=N)N)C(=O)N(C)CC(=O)N[C@@H](Cc2c[nH]c3ccccc23)C(=O)N[C@H](C(N)=O)CSCC(=O)N[C@@H](CCc2ccccc2)C(=O)N[C@@H](Cc2ccc(O)cc2)C(=O)N[C@@H](CO)C(=O)N[C@@H](Cc2c[nH]c3ccccc23)C(=O)N1C` [SEQ ID NO. 260] ({CH2CO}-[hPhe]YSW[NMeA]N[4Pal]W[αMeS][Phe(4-COOH)]R[Sar]WC-NH2; thioether N-14) registered an IC50 in experiment [1] of 10.2 nM. The Kd was above 1000 nM on human TNFR2 ECD protein and 6 nM in experiment [2].
On to `CCCC[C@@H]1NC(=O)CSC[C@@H](C(N)=O)NC(=O)[C@H]([C@@H](C)c2c[nH]c3c(OC)cccc23)NC(=O)CN(C)C(=O)[C@H](Cc2ccc(O)cc2)NC(=O)[C@H](Cc2ccc(C(=O)O)cc2)NC(=O)[C@](C)(CO)NC(=O)[C@H](Cc2c[nH]c3c(Cl)cccc23)NC(=O)[C@H](Cc2ccc(OCC(=O)O)cc2)NC(=O)[C@H](CC(N)=O)NC(=O)[C@H](CCC(=O)O)N(C)C(=O)[C@H](Cc2c[nH]c3ccccc23)NC(=O)[C@@H]2COC(C)(C)CN2C(=O)[C@H](Cc2ccncc2)NC1=O` [SEQ ID NO. 179] ({CH2CO}-[Nle][4Pal][Morpholine(3S-CO,6,6-Me2)]W[NMeE]NY(Carboxymethyl)[Trp(7-Cl)][αMeS][Phe(4-COOH)]Y[Sar][Trp(βS-Me,7-OMe)]C-NH2; thioether N-14), for which the IC50 in experiment [1] came out at 0.5 nM. Moreover, the Kd in experiment [1] is 0.29 nM; on human TNFR2 ECD protein, above 1000 nM; in experiment [2] it was 0.14 nM.
In the case of `CCCC[C@@H]1NC(=O)CSC[C@@H](C(N)=O)NC(=O)[C@H]([C@@H](C)c2c[nH]c3cccc(OC)c23)NC(=O)CN(C)C(=O)[C@H](Cc2ccc(O)cc2)NC(=O)[C@H](Cc2ccc(C(N)=O)cc2)NC(=O)[C@](C)(CO)NC(=O)[C@H](Cc2c[nH]c3c(Cl)cccc23)NC(=O)[C@H](Cc2ccc(C(=O)O)cc2)NC(=O)[C@H](CC(N)=O)NC(=O)[C@H](CCC(=O)O)N(C)C(=O)[C@H](Cc2c[nH]c3ncccc23)NC(=O)[C@H](CO)N(C)C(=O)[C@H](Cc2ccncc2)NC1=O` [SEQ ID NO. 209] ({CH2CO}-[Nle][4Pal][NMeS][Trp(7-aza)][NMeE]N[Phe(4-COOH)][Trp(7-Cl)][αMeS][Phe(4-CONH2)]Y[Sar][X5]C-NH2; thioether N-14), the IC50 in experiment [1] is 0.6 nM. For the same compound, the Kd in experiment [1] is 0.67 nM; at human TNFR2 ECD protein, above 1000 nM; in experiment [2], 0.4 nM.
As to `CCCC[C@@H]1NC(=O)[C@@H]2CC[C@@H](C2)NC(=O)[C@H]([C@@H](C)c2c[nH]c3c(OC)cccc23)NC(=O)CN(C)C(=O)[C@H]([C@H](O)c2ccc(C(=O)O)cc2)NC(=O)[C@H](Cc2ccc(C(N)=O)cc2)NC(=O)[C@](C)(CO)NC(=O)[C@H](Cc2c[nH]c3c(Cl)cccc23)NC(=O)[C@H](Cc2ccncc2)NC(=O)[C@H](CC(N)=O)NC(=O)[C@H]2C[C@H](O)CN2C(=O)[C@H](Cc2c[nH]c3ccccc23)NC(=O)[C@@H]2CC[C@@H](O)CN2C(=O)[C@H](Cc2ccncc2)NC1=O` [SEQ ID NO. 188] (cyclo([4Pal][Trp(7-Cl)][αMeS][Phe(4-CONH2)][X24][Sar][Trp(βS-Me,7-OMe)][X1][Nle][4Pal][Pip(5R-OH)]W[dHyp]N)), the Kd in experiment [1] was 0.1 nM; at human TNFR2 ECD protein, above 1000 nM; in experiment [2], 0.03 nM.
`CCCC[C@@H]1NC(=O)[C@H]2C[C@@H](CNC(=O)[C@H]([C@@H](C)c3c[nH]c4c(OC)cccc34)NC(=O)CN(C)C(=O)[C@H](Cc3ccc(O)cc3)NC(=O)[C@H](Cc3ccc(C(=O)O)cc3)NC(=O)[C@](C)(CO)NC(=O)[C@H](Cc3c[nH]c4c(Cl)cccc34)NC(=O)[C@H](Cc3ccncc3)NC(=O)[C@H](CC(N)=O)NC(=O)[C@H](CCC(=O)O)N(C)C(=O)[C@H](Cc3c[nH]c4ccccc34)NC(=O)[C@@H]3CNCCN3C(=O)[C@H](Cc3ccncc3)NC1=O)C2` [SEQ ID NO. 268] (cyclo([4Pal][Trp(7-Cl)][αMeS][Phe(4-COOH)]Y[Sar][Trp(βS-Me,7-OMe)][cBu(1-CO,cis-3-CH2NH)][Nle][4Pal][Pip(4-aza)]W[NMeE]N)) yielded an IC50 in experiment [1] of 0.77 nM. The Kd in experiment [1] is 0.45 nM; at human TNFR2 ECD protein it was above 1000 nM; in experiment [2] it was 0.27 nM.
`CCCC[C@@H]1NC(=O)CSC[C@@H](C(N)=O)NC(=O)[C@H]([C@@H](C)c2c[nH]c3c(OC)cccc23)NC(=O)CN(C)C(=O)[C@H](Cc2ccc(O)cc2)NC(=O)[C@H](Cc2ccc(C(N)=O)cc2)NC(=O)[C@](C)(CO)NC(=O)[C@H](Cc2c[nH]c3c(Cl)cccc23)NC(=O)[C@H](Cc2ccncc2)NC(=O)[C@H](CC(N)=O)NC(=O)[C@H]2C[C@@H](N)CN2C(=O)[C@H](Cc2c[nH]c3ncccc23)NC(=O)[C@@H]2CNCCN2C(=O)[C@H](Cc2ccncc2)NC1=O` [SEQ ID NO. 219] ({CH2CO}-[Nle][4Pal][Pip(4-aza)][Trp(7-aza)][dPro(cis-4-NH2)]N[4Pal][Trp(7-Cl)][αMeS][Phe(4-CONH2)]Y[Sar][Trp(βS-Me,7-OMe)]C-NH2; thioether N-14): the IC50 in experiment [1] came to 0.3 nM. Further, the Kd in experiment [1] is 0.15 nM; at human TNFR2 ECD protein it was above 1000 nM; in experiment [2], 0.1 nM.
Consider `CCCC[C@@H]1NC(=O)[C@@H]2CC[C@@H](C2)NC(=O)[C@H]([C@@H](C)c2c[nH]c3c(OC)cccc23)NC(=O)CN(C)C(=O)[C@H](Cc2ccc(C(N)=O)cc2)NC(=O)[C@H](Cc2ccc(S(N)(=O)=O)cc2)NC(=O)[C@](C)(CO)NC(=O)[C@H](Cc2c[nH]c3c(C#N)cccc23)NC(=O)[C@H](Cc2ccc(C(=O)O)cc2)NC(=O)[C@H](CC(N)=O)NC(=O)[C@H]2C[C@H]([N+](C)(C)C)CN2C(=O)[C@H](Cc2cn(CC(=O)O)c3ccccc23)NC(=O)[C@@H]2CC[C@@H](O)CN2C(=O)[C@H](Cc2ccncc2)NC1=O` [SEQ ID NO. 9] (cyclo([4Pal][Pip(5R-OH)][Trp(1-CH2COOH)][dPro(trans-4-NMe3+)]N[Phe(4-COOH)][Trp(7-CN)][αMeS][Phe(4-SO2NH2)][Phe(4-CONH2)][Sar][Trp(βS-Me,7-OMe)][X1][Nle])), for which the values for the Kd (in experiment [1]; at human TNFR2 ECD protein; in experiment [2]) were 0.05 nM, above 1000 nM and 0.1 nM, respectively.
Turning to `CCCC[C@@H]1NC(=O)CSC[C@@H](C(N)=O)NC(=O)[C@](C)(Cc2c[nH]c3ccccc23)NC(=O)CN(C)C(=O)[C@H](Cc2ccc(O)cc2)NC(=O)[C@H](Cc2ccc(C(=O)O)cc2)NC(=O)[C@](C)(CO)NC(=O)[C@H](Cc2c[nH]c3c(Cl)cccc23)NC(=O)[C@H](Cc2ccncc2)NC(=O)[C@H](CC(N)=O)NC(=O)[C@H](CCC(=O)O)N(C)C(=O)[C@H](Cc2c[nH]c3ncccc23)NC(=O)[C@H](CNC)NC(=O)[C@H](Cc2ccncc2)NC1=O` [SEQ ID NO. 235] ({CH2CO}-[Nle][4Pal][Dap(Me)][Trp(7-aza)][NMeE]N[4Pal][Trp(7-Cl)][αMeS][Phe(4-COOH)]Y[Sar][αMeW]C-NH2; thioether N-14), the IC50 in experiment [1] amounted to 1.92 nM. For the same compound, the Kd at human TNFR2 ECD protein was above 1000 nM; in experiment [2], 1.2 nM.
